Experimental findings from BindingDB's records for patent US20250289812 (Shanghai Institute Of Materia Medica, 2025) are described below.

Molecules are shown by their SMILES.

The assay deals with T1, Proto-oncogene tyrosine-protein kinase Src [84-145] (UniProt P12931).
T1 construct: 84-145
Kind of assay: Surface Plasmon Resonance Experiment. As to the method:
Experimental method: Surface plasmon resonance test was carried out on BIACORE T200 instrument (GE Company). Fresh purified grade Src kinase SH3 domain protein (concentration 2 mg/ml) was diluted to 0.1 mg/ml with 10 mM CH3COONa (pH 4.2) and then SH3 protein was coupled to the CM5 chip by standard amino coupling methods. The compounds of the invention were diluted in a gradient using a buffer solution (20 mM Tris-HCl, PH 8.0, 100 mM NaCl) for 60 seconds and dissociated for 120 seconds at a flow rate of […], respectively. The changes in response values over time were recorded and analyzed by the BIA Evaluation Software (GE Healthcare) program to obtain the dissociation constants KD for the different compounds with SH3 protein.

As usually defined, the Kd is the equilibrium constant for the complex coming apart. A low value points to tighter binding. `COc1cnc2c(c1)c(C(N)=O)c(CNC(=N)N)n2C` [US20250289812, Example SYY-C036] showed an equilibrium dissociation constant (Kd) of under 1000 nM.

On to `CCOC(=O)c1c(CNC(=N)N)n(C)c2cc(C3CC4CCC3C4)ccc12` (configuration not stated) [US20250289812, Example SYY-C069], for which the Kd was under 1000 nM.
